Experimental data reported in patent US9518065B2, “IRAK inhibitors and uses thereof” (NIMBUS IRIS, INC., priority 2013, dated 2016).
Like-named read-outs stand apart in the source and are kept apart here.

Assays:
[1] = tested on: TNFα and IL8 production in THP-1 cells; experiment: LPS induced cytokine (TNFα and IL8) production assay in THP-1 cells; type: cell-based; conditions: Homo sapiens, 300 ng/mL LPS
Procedure: Provided compounds were also assayed in an LPS (Lipopolysacharide) or R848 (TLR-7 agonist) induced cytokine (TNFα and IL8) production assay in THP-1 cells, human white blood cells (hWBC), and whole blood. The exemplary protocol for this assay in THP-1 cells was as follows below.
THP-1 cells from ATCC (TIB-202) were cultured in RPMI Medium 1640 (Invitrogen, Cat No. A10491-01), 10% fetal bovine serum (Invitrogen, Cat No. 10099141, Lot No. 8172882) containing 100 U/mL Penicillin, 100 μg/mL streptomycin (Invitrogen, Cat No. 15140-122), and 50 uM 2-Mercaptoethanol (Invitrogen, Cat No. 21985023). LPS-EK ultra pure (Invivogen, Cat No. tlrl-peklps) was used to induce IL8 and TNFα production, that was detected in the cell culture supernatant by IL8 HTRF kit (Cisbio, Cat No. 62IL8PEB) and TNFα HTRF kit (Cisbio, Cat No. 62TNFPEB), as per manufacturer instructions. Cells were cultured in 96 well assay plates at 100,000 cells per well, and compounds diluted in final 0.3% DMSO were pre-incubated with cells for 1 hour prior to stimulation with 300 ng/mL LPS. Cytokine production in cell supernatant was measured at 5 hours for TNFα and IL8 production, and for 16 hours for IL8 production and assessment of cell viability.
The compound numbers correspond to the compound numbers in Table 1. […] “NA” stands for “not assayed.”

[2] = biological target: T1, IRAK4 (Homo sapiens, UniProt Q9NWZ3); experiment: IRAK-4 activity inhibition assay (Caliper); type: biochemical; conditions: 3.5 nM IRAK4, 37 μM ATP, 1.5 μM Peptide 8
T1 construct: purchased CARNA Bioscience 09-145
T1 sequence (Q9NWZ3 1-460): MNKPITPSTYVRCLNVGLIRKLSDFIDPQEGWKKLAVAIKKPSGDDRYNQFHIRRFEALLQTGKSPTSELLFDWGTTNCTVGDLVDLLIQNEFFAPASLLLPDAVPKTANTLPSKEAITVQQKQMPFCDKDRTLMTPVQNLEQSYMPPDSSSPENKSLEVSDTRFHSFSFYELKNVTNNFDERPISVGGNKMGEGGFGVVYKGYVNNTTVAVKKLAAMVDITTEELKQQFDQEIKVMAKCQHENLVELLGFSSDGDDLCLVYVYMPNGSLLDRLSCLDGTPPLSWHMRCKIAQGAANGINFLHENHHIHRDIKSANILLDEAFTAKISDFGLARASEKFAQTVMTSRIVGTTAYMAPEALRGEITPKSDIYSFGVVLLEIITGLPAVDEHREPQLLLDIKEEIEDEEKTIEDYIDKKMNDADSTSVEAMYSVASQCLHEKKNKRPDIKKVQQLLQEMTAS
Procedure: A 1× kinase base buffer was prepared from 50 mM HEPES, pH 7.5 and 0.0015% Brij-35. A stop buffer was prepared from 100 mM HEPES, pH 7.5, 0.015% Brij-35, 0.2% Coating Reagent #3, and 50 mM EDTA.
Test compound was diluted to 50× of the final desired highest inhibitor concentration in reaction by 100% DMSO. 100 ul of this compound dilution was transferred to a well in a 96-well plate. For example, if desired highest inhibitor concentration in IC50 determination is 100 uM, then prepare 5000 uM of compound DMSO solution in this step.
Test compound was serially diluted by transferring 30 μl to 60 μl of 100% DMSO in the next well and so forth for a total of 10 concentrations. 100 μl of 100% DMSO was added to two empty wells for no compound control and no enzyme control in the same 96-well plate.
A new 96-well plate was marked as intermediate plate. 5 μl of compound serial dilution was transferred from source plate to the corresponding wells of the intermediate plate. 45 μl of 1× kinase base buffer (KB buffer) was added to each well of the intermediate plate. The intermediate plate was placed for 10 min on a shaker.
5 μl of each well was transferred from the 96-well intermediate plate to a 384-well plate in duplicates. For example, A1 of the 96-well plate is transferred to A1 and A2 of the 384-well plate. A2 of the 96-well plate is transferred to A3 and A4 of the 384-well plate, and so on.
IRAK4 and DTT in 1× kinase base buffer was added. The 2.5× enzyme mix contained 8.8 nM IRAK4 and 5 mM DTT.
Peptide 8, ATP, MgCl2 and MnCl2 were added in the 1× kinase base buffer. The 2.5× peptide mix contained 3.75 μM peptide 8, 92.5 μM ATP, 12.5 mM MgCl2 and 2.5 mM MnCl2.
Assay plate already contained 5 μl of compound in 10% DMSO. Added 10 μl of 2.5× enzyme solution to each well of the 384-well assay plate, except no enzyme control wells. The final concentration of IRAK4 in reaction was 3.5 nM. Added 10 μl of 1× kinase base buffer to no enzyme control wells in the assay plate. Incubated at room temperature for 10 min.
Added 10 μl of 2.5× peptide solution to each well of the 384-well assay plate. The final concentration of Peptide 8 and ATP was 1.5 μM and 37 μM, respectively. Incubated at 28° C. for 40 minutes. Added 25 μl of stop buffer to stop reaction. Collected data on Caliper.
Copied conversion % data from Caliper program. Converted conversion % values to percent inhibition values. Percent inhibition=(max-conversion %)/(max-min)*100, where “max” means the conversion % of DMSO control and “min” means the conversion % of no enzyme control.
The compound numbers correspond to the compound numbers in Table 1. Compounds having an activity designated as “A” provided an IC50≦1 μM; compounds having an activity designated as “B” provided an IC50 of 1-5 μM; compounds having an activity designated as “C” provided an IC50 of ≧5 μM. “NA” stands for “not assayed.”

[3] = 5 hours, read-out: TNFα production IC50
[4] = 16 hours, read-out: IL8 (16 h) production IC50

Row | SMILES | IC50 [1, 3] [nM] | IC50 [2] [nM] | IC50 [1, 4] [nM]
1 | CCc1nc2c(N[C@H]3CC[C@H](N4CCC(O)CC4)CC3)nc(Nc3cnn(C4CCOCC4)c3)nc2s1 [Compound I-16] | ≤ 250 | ≤ 1000 | –
2 | CCc1nc2c(N[C@H]3CC[C@H](N4CCC5(CC4)CC5)CC3)nc(Nc3cnn(C4CCOCC4)c3)nc2s1 [Compound I-23, N7-((1r,4r)-4-(6-azaspiro[2.5]octan-6-yl)cyclohexyl)-2-ethyl-N5-(1-(tetrahydro-2H-pyran-4-yl)-1H-pyrazol-4-yl)thiazolo[5,4-d]pyrimidine-5,7-diamine] | 250 to 500 | ≤ 1000 | ≤ 250
3 | Cc1nc2c(N[C@H]3CC[C@H](N4CCC5(CC4)CC5)CC3)nc(Nc3cnn(C)c3)nc2s1 [Compound I-39, N7-((1r,4r)-4-(6-azaspiro[2.5]octan-6-yl)cyclohexyl)-2-methyl-N5-(1-methyl-1H-pyrazol-4-yl)thiazolo[5,4-d]pyrimidine-5,7-diamine] | 250 to 500 | ≤ 1000 | 250 to 500
4 | CCc1nc2c(N[C@H]3CC[C@H](N4CCC5(CC4)CC5)CC3)nc(Nc3cnn(C)c3)nc2s1 [Compound I-21, N7((1r,4r)-4-(6-azaspiro[2.5]octan-6-yl)cyclohexyl)-2-ethyl-N5-(1-methyl-1H-pyrazol-4-yl)thiazolo[5,4-d]pyrimidine-5,7-diamine] | ≤ 250 | ≤ 1000 | ≤ 250
5 | CCc1nc2c(N[C@H]3CC[C@H](N4CCOCC4)CC3)nc(Nc3cnn(CC4CCOCC4)c3)nc2s1 [Compound I-18, 2-ethyl-N7-((1r,4r)-4-morpholinocyclohexyl)-N5-(1-((tetrahydro-2H-pyran-4-yl)methyl)-1H-pyrazol-4-yl)thiazolo[5,4-d]pyrimidine-5,7-diamine] | ≤ 250 | ≤ 1000 | ≤ 250
6 | CCc1nc2c(N[C@H]3CC[C@H](N4CCC5(CC4)COC5)CC3)nc(Nc3cnn(C)c3)nc2s1 [Compound I-13, N7-((1r,4r)-4-(2-oxa-7-azaspiro[3.5]nonan-7-yl)cyclohexyl)-2-ethyl-N5-(1-methyl-1H-pyrazol-4-yl)thiazolo[5,4-d]pyrimidine-5,7-diamine] | ≤ 250 | ≤ 1000 | ≤ 250
7 | CCc1nc2c(N[C@H]3CC[C@H](N4CCOCC4)CC3)nc(Nc3cnn(C4CCS(=O)(=O)CC4)c3)nc2s1 [Compound I-10, 4-(4-((2-ethyl-7-(((1r,4r)-4-morpholino-cyclohexyl)amino)-thiazolo[5,4-d]pyrimidin-5-yl)amino)-1H-pyrazol-1-yl)tetrahydro-2H-thiopyran 1,1-dioxide] | ≤ 250 | ≤ 1000 | ≤ 250

The remaining lines, values ahead:

Row | IC50 [1, 3] [nM] | IC50 [2] [nM] | IC50 [1, 4] [nM] | SMILES
8 | ≥ 500 | ≤ 1000 | 250 to 500 | Cc1nc2c(N[C@H]3CC[C@H](N4CCOCC4)CC3)nc(Nc3cnn(CCCS(C)(=O)=O)c3)nc2s1 [Compound I-38, 2-methyl-N5-(1-(3-(methylsulfonyl)propyl)-1H-pyrazol-4-yl)-N7-((1r,4r)-4-morpholinocyclohexyl)thiazolo[5,4-d]pyrimidine-5,7-diamine]
9 | ≥ 500 | ≤ 1000 | ≥ 500 | Cn1cc(Nc2nc(N[C@H]3CC[C@H](N4CCOCC4)CC3)c3nc(CO)sc3n2)cn1 [Compound I-37, (5-((1-methyl-1H-pyrazol-4-yl)amino)-7-(((1r,4r)-4-morpholino-cyclohexyl)amino)thiazolo[5,4-d]pyrimidin-2-yl)methanol]
10 | ≥ 500 | ≤ 1000 | – | Cc1nc2c(N[C@H]3CC[C@H](N4CCC(O)CC4)CC3)nc(Nc3cnn(C)c3)nc2s1 [Compound I-30, 1-((1r,4r)-4-((2-methyl-5-((1-methyl-1H-pyrazol-4-yl)amino)thiazolo[5,4-d]pyrimidin-7-yl)amino)cyclohexyl)piperidin-4-ol]
11 | ≥ 500 | ≤ 1000 | ≥ 500 | CC(O)c1nc2c(N[C@H]3CC[C@H](N4CCOCC4)CC3)nc(Nc3cnn(C)c3)nc2s1 (stereo partly shown) [Compound I-35, 1-(5-((1-methyl-1H-pyrazol-4-yl)amino)-7-(((1r,4r)-4-morpholino-cyclohexyl)amino)thiazolo[5,4-d]pyrimidin-2-yl)ethan-1-ol]
12 | ≤ 250 | ≤ 1000 | ≤ 250 | CCc1nc2c(N[C@H]3CC[C@H](N4CCOCC4)CC3)nc(Nc3cnn(CCOC)c3)nc2s1 [Compound I-34, 2-ethyl-N5-(1-(2-methoxyethyl)-1H-pyrazol-4-yl)-N7-((1r,4r)-4-morpholinocyclohexyl)thiazolo[5,4-d]pyrimidine-5,7-diamine]
